The results in this text go back to patent US9085555B2, “Complement pathway modulators and uses thereof” (priority 2011, dated 2015).

For this experiment, the target named is Factor D (Homo sapiens (Human), UniProt P00746). Nature of the experiment: biochemical. It is filed as biochemical.

Where two headings read alike, the source gives them in different places.

Sequence of Factor D (P00746 26-253): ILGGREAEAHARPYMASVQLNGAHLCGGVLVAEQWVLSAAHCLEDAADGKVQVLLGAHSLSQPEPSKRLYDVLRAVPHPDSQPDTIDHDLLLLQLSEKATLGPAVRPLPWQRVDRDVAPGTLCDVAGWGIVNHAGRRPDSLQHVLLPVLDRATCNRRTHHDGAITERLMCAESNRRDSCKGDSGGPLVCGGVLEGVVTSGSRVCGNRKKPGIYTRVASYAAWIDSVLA

`NC(=O)n1cc(NC(=O)N2C[C@H](F)C[C@H]2CNS(=O)(=O)c2cccc(Br)c2)c2ccccc21` [Example 108, 3-({(2S,4R)-4-Fluoro-2-[(3-bromo-benzenesulfonylamino)-methyl]-pyrrolidine-1-carbonyl}-amino)-indole-1-carboxylic acid amide]: the IC50 (read-out: IC50) stood at 55 nM. The same measure, in the same setting: as for `NC(=O)n1cc(NC(=O)N2C[C@H](F)C[C@H]2CNS(=O)(=O)c2cccc(OC(F)(F)F)c2)c2ccccc21` [Example 109, 3-({(2S,4R)-4-Fluoro-2-[(3-trifluoromethoxy-benzenesulfonylamino)-methyl]-pyrrolidine-1-carbonyl}-amino)-indole-1-carboxylic acid amide], the figure is 2700 nM. Regarding `NC(=O)n1cc(NC(=O)N2C[C@H](F)C[C@H]2CNS(=O)(=O)c2cccc(Cl)c2F)c2ccccc21` [Example 110, 3-({(2S,4R)-2-[(3-Chloro-2-fluoro-benzenesulfonylamino)-methyl]-4-fluoro-pyrrolidine-1-carbonyl}-amino)-indole-1-carboxylic acid amide], the IC50 (read-out: IC50) came out at 20 nM.

With `NC(=O)n1cc(NC(=O)N2C[C@H](F)C[C@H]2CNS(=O)(=O)c2ccc(Cl)s2)c2ccccc21` [Example 111, 3-({(2S,4R)-2-[(5-Chloro-thiophene-2-sulfonylamino)-methyl]-4-fluoro-pyrrolidine-1-carbonyl}-amino)-indole-1-carboxylic acid amide], for the setting “read-out: IC50”, the concentration for half-maximal inhibition (IC50) amounted to 60 nM.

Regarding `NC(=O)n1cc(NC(=O)N2CCC[C@H]2CNS(=O)(=O)c2cccc(Cl)c2)c2ccccc21` [Example 112, 3-({(S)-2-[(3-Chloro-benzenesulfonylamino)-methyl]-pyrrolidine-1-carbonyl}-amino)-indole-1-carboxylic acid amide], the IC50 (read-out: IC50) was 550 nM. Still for that read-out and setting: then `NC(=O)n1cc(NC(=O)N2C[C@H](F)C[C@H]2CNC(=O)Cc2ccccc2)c2ccccc21` [Example 113, 3-{[(2S,4R)-4-Fluoro-2-(phenylacetylamino-methyl)-pyrrolidine-1-carbonyl]-amino}-indole-1-carboxylic acid amide], with 1150 nM. For the molecule `NC(=O)n1cc(NC(=O)N2C[C@H](F)C[C@H]2CNCc2cccc(Cl)c2F)c2ccccc21` [Example 116, 3-({(2S,4R)-2-[(3-Chloro-2-fluoro-benzylamino)-methyl]-4-fluoro-pyrrolidine-1-carbonyl}-amino)-indole-1-carboxylic acid amide], where the note is “read-out: IC50”, the IC50 came to 1150 nM.

With `NC(=O)n1cc(NC(=O)N2CCC[C@H]2CNc2cccc(OC(F)(F)F)c2)c2ccccc21` [Example 117, 3-({(S)-2-[(3-Trifluoromethoxy-phenylamino)-methyl]-pyrrolidine-1-carbonyl}-amino)-indole-1-carboxylic acid amide], the IC50 (read-out: IC50) is 11800 nM. As for `NC(=O)c1cn(CC(=O)N2CCC[C@H]2C(=O)Nc2cccc(OC(F)(F)F)c2)c2ccccc12` [Example 118, 1-{2-oxo-2-[(S)-2-(3-trifluoromethoxy-phenylcarbamoyl)-pyrrolidin-1-yl]-ethyl}-1H-indole-3-carboxylic acid amide], the half-inhibitory concentration (IC50) (read-out: IC50) came to 17500 nM. As to `CC(=O)n1cc(CC(=O)N2CCC[C@H]2C(=O)Nc2cccc(OC(F)(F)F)c2)c2ccccc21` [Example 119, (S)-1-[2-(1-Acetyl-1H-indol-3-yl)-acetyl]-pyrrolidine-2-carboxylic acid (3-trifluoromethoxy-phenyl)-amide], the IC50 (read-out: IC50) was 4800 nM.

`CC(=O)n1cc(C(N)C(=O)N2C[C@H](F)C[C@H]2C(=O)NCc2cccc(Cl)c2F)c2ccccc21` (stereo partly drawn) [Example 120, (2S,4R)-1-[2-(1-Acetyl-1H-indol-3-yl)-2-amino-acetyl]-4-fluoro-pyrrolidine-2-carboxylic acid 3-chloro-2-fluoro-benzylamide]: the IC50 (read-out: IC50) was found to be 3200 nM. Still for that read-out and setting: as for `NC(=O)c1cc(NC(=O)N2CCC[C@H]2C(=O)Nc2cccc(OC(F)(F)F)c2)c2ccccn12` [Example 121, (S)-Pyrrolidine-1,2-dicarboxylic acid 1-[(3-carbamoyl-indolizin-1-yl)-amide]2-[(3-trifluoromethoxy-phenyl)-amide]], the figure is 1250 nM; as for `NC(=O)c1cc(NC(=O)N2CCC[C@H]2C(=O)Nc2cccc(OC(F)(F)F)c2)n2ccccc12` [Example 123, (S)-Pyrrolidine-1,2-dicarboxylic acid 1-[(1-carbamoyl-indolizin-3-yl)-amide]2-[(3-trifluoromethoxy-phenyl)-amide]], 2930 nM; as for `N#C[C@H]1C[C@@H](C(=O)Nc2cccc(OC(F)(F)F)c2)N(C(=O)Nc2cn(C(N)=O)c3ccccc23)C1` [Example 125, (2S,4S)-4-Cyano-pyrrolidine-1,2-dicarboxylic acid 1-[(1-carbamoyl-1H-indol-3-yl)-amide]2-[(3-trifluoromethoxy-phenyl)-amide]], 5100 nM.

Consider `C[C@@H]1CCN(C(=O)Nc2cn(C(N)=O)c3ccccc23)[C@@H]1C(=O)NCc1cccc(Cl)c1F` [Example 126, (2S,3R)-3-Methyl-pyrrolidine-1,2-dicarboxylic acid 1-[(1-carbamoyl-1H-indol-3-yl)-amide] 2-(3-chloro-2-fluoro-benzylamide)], for which the IC50 (read-out: IC50) turned out to be 100 nM. The same measure, in the same setting: then `CC(C)(C)OC(=O)Cc1ccc2c(NC(=O)N3[C@@H]4C[C@@H]4C[C@H]3C(=O)NCc3cccc(Cl)c3F)cn(C(N)=O)c2c1` [Example 127, (1-Carbamoyl-3-{[(1R,3S,5R)-3-(3-chloro-2-fluoro-benzylcarbamoyl)-2-aza-bicyclo[3.1.0]hexane-2-carbonyl]-amino}-1H-indol-6-yl)-acetic acid tert-butyl ester], with 3 nM; and `CO[C@H]1C[C@@H](C(=O)Nc2cccc(OC(F)(F)F)c2)N(C(=O)Nc2cn(C(N)=O)c3ccccc23)C1` [Example 128, (2S,4S)-4-Methoxy-pyrrolidine-1,2-dicarboxylic acid 1-[(1-carbamoyl-1H-indol-3-yl)-amide] 2-[(3-trifluoromethoxy-phenyl)-amide]], with 2000 nM; and `CC(=O)n1cc(NC(=O)N2[C@@H]3C[C@@H]3C[C@H]2C(=O)N[C@H](CO)c2cccc(Cl)c2F)c2ccccc21` [Example 129, (1R,3S,5R)-2-Azabicyclo[3.1.0]hexane-2,3-dicarboxylic acid 2-[(1-acetyl-1H-indol-3-yl)-amide] 3-{[(S)-1-(3-chloro-2-fluoro-phenyl)-2hydroxy-ethyl]-amide}], with 4 nM. As for `CNC(=O)n1cc(NC(=O)N2[C@@H]3C[C@@H]3C[C@H]2C(=O)NCc2cccc(Cl)c2F)c2ccccc21` [Example 130, (1R,3S,5R)-2-Azabicyclo[3.1.0]hexane-2,3-dicarboxylic acid 3-(3-chloro-2-fluoro-benzylamide) 2-[(1-methylcarbamoyl-1H-indol-3-yl)-amide]], the IC50 (read-out: IC50) turned out to be 54 nM. As for `COCCOc1ccc2c(c1)c(NC(=O)N1C[C@](C)(F)C[C@H]1C(=O)NCc1cccc(Cl)c1F)cn2C(N)=O` [Example 132, (2S,4R)-4-Fluoro-methyl-pyrrolidine-1,2-dicarboxylic acid 1-{[1-carbamoyl-5-(2-methoxy-ethoxy)-1H-indol-3-yl]-amide} 2-(3-chloro-2-fluoro-benzylamide)], the IC50 (read-out: IC50) amounted to 18 nM. On to `COC(=O)COc1ccc2c(c1)c(NC(=O)N1[C@@H]3C[C@@H]3C[C@H]1C(=O)NCc1cccc(Cl)c1F)cn2C(N)=O` [Example 133, (1-carbamoyl-3-{[(1R,3S,5R)-3-(3-chloro-2-fluoro-benzylcarbamoyl)-2-azabicyclo[3.1.0]hexane-2-carbonyl]amino}-1H-indol-5-yloxy)-acetic acid methyl ester], for which, where the note is “read-out: IC50”, the IC50 came to 6 nM. In the case of `NC(=O)n1cc(NC(=O)N2CC3CC3[C@H]2C(=O)NCc2cccc(Cl)c2F)c2ccccc21` (stereo partly drawn) [Example 135, (1S,2S,5R)-3-Aza-bicyclo[3.1.0]hexane-2,3-dicarboxylic acid 3-[(1-carbamoyl-1H-indol-3-yl)-amide] 2-(3-chloro-2-fluoro-benzylamide)], the half-maximal inhibitory concentration (IC50) (read-out: IC50) was determined as 59 nM. `NC(=O)n1cc(NC(=O)N2CC3CC2(C(=O)NCc2cccc(Cl)c2F)C3)c2ccccc21` [Example 136, 2-Aza-bicyclo[2.1.1]hexane-1,2-dicarboxylic acid 2-[(1-carbamoyl-1H-indol-3-yl)-amide] 1-(3-chloro-2-fluoro-benzylamide)]: the half-inhibitory concentration (IC50) amounted to 17900 nM. For `NC(=O)n1cc(NC(=O)N2C[C@H](F)C[C@H]2C(=O)NCc2cccc(Br)c2F)c2ccccc21` [Example 138, (2S,4R)-4-Fluoro-pyrrolidine-1,2-dicarboxylic acid 2-(3-bromo-2-fluoro-benzylamide) 1-[(1-carbamoyl-1H-indol-3-yl)-amide]], the IC50 (read-out: IC50) was determined as 9 nM.

In the case of `CC(=O)NC[C@H]1CC[C@@H](C(=O)Nc2cccc(OC(F)(F)F)c2)N1C(=O)Nc1cn(C(N)=O)c2ccccc12` [Example 139, (2S,5R)-5-(Acetylamino-methyl)-pyrrolidine-1,2-dicarboxylic acid 1-[(1-carbamoyl-1H-indol-3-yl)-amide] 2-[(3-trifluoromethoxy-phenyl)-amide]], where the note is “read-out: IC50”, the concentration for half-maximal inhibition (IC50) came to 1500 nM.

Consider `NC(=O)n1cc(NC(=O)N2C[C@H](F)C[C@H]2C(=O)NCc2cc(C(=O)O)cc(Cl)c2F)c2ccccc21` [Example 144, 3-({[(2S,4R)-1-(1-carbamoyl-1H-indol-3-ylcarbamoyl)-4-fluoro-pyrrolidine-2-carbonyl]-amino}-methyl)-5-chloro-4-fluoro-benzoic acid], for which the IC50 (read-out: IC50) amounted to 15 nM. The same measure, in the same setting: then `NC(=O)n1cc(NC(=O)N2CC=C[C@H]2C(=O)Nc2cccc(OC(F)(F)F)c2)c2ccccc21` [Example 145, (S)-2,5-Dihydro-pyrrole-1,2-dicarboxylic acid 1-[(1-carbamoyl-1H-indol-3-yl)-amide] 2-[(3-trifluoromethoxy-phenyl)-amide]], with 300 nM. As for `NC(=O)n1cc(NC(=O)N2CC3O[C@@H]3[C@H]2C(=O)NCc2cccc(Cl)c2F)c2ccccc21` (stereo partly drawn) [Example 146, (1R,2S,5S)-6-Oxa-3-aza-bicyclo[3.1.0]hexane-2,3-dicarboxylic acid 3-[(1-carbamoyl-1H-indol-3-yl)-amide] 2-(3-chloro-2-fluoro-benzylamide)], the IC50 (read-out: IC50) is 9 nM.
